Like-named read-outs stand apart in the source and are kept apart here.
Key:
[1] = literature (Liles 2003; DiPersio 2009); cited from earlier work
[2] = test system: patients with myelokathexis attributable to mutations of CXCR4
Experimental: […] intrapatient escalating dose levels, 20 mcg/kg, 40 mcg/kg, 80 mcg/kg, and 240 mcg/kg were exam in d. The subjects were patients at the University of Washington General Clinical Research Center for up to 10 days; the study requires the subject to be available for up to 14 days.
Complete blood counts were determined at 1, 3, 6, 9 and 24 hours with an automated counter and leukocyte differential counts confirmed manually. CD34^+ cells and lymphocyte subtypes were measured by FACS before and 6 hours after the 0.08 mg/kg dose.

c1cc(CN2CCCNCCNCCCNCC2)ccc1CN1CCCNCCNCCCNCC1 [plerixafor]
effect on circulating CD34+ cells [1]: increases circulating CD34^+ cells | leukocyte effect of subcutaneous administration [1]: dose-dependent leukocytosis | hematocrit, hemoglobin and platelet counts ([2]; 10 day testing period, except one patient with severe iron deficiency anemia): stable | leukocyte response ([2]; all 6 patients): prompt leukocytosis | blood neutrophils 24 hours after dose ([2]; another patient, 0.24 mg/kg dose): 2e+09 L⁻¹ | fold increase, peak neutrophil response ([2]; controls (normal subjects similarly treated)): 4.4 fold | blood neutrophils 24 hours after dose ([2]; one patient, 0.16 mg/kg dose): greater than 2.0 ×10^9/L | peak blood neutrophils (group mean of highest observed values) ([2]; patient group, single s.c. doses 0.02 to 0.24 mg/kg, mean baseline 0.4±0.1×10^9/L): 4.5±0.78 ×10^9/L | absolute lymphocyte count increase from baseline to peak levels ([2]; patients): approximately 14 fold | absolute lymphocyte counts versus normal levels ([2]; patients): transiently reached normal levels | fold increase, peak neutrophil response ([2]; patients): 8.2 fold | CD34+ cells increase ([2]; patients, 0.08 mg/kg dose, FACS before and 6 hours after): ~6 fold | effect on neutropenia and lymphocytopenia ([2]; patients, s.c. single doses): transiently correct neutropenia and lymphocytopenia
